Data set [1] is described as follows: Solubility of pydiflumetofen in solvents suitable for emulsion production. It counts as physicochemical. An excerpt: The choice of solvent for an agrochemical EC formulation is important and dependent upon the individual active ingredient that is the solute. In addition, the choice of solvent for an emulsifiable concentrate formulation can have an impact on the physical stability, application properties, and biological performance of the agrochemical formulation. In this case the active ingredient is the fungicide pydiflumetofen or 3-difluoromethyl-1-methyl-1H-pyrazole-4-carboxylic acid methoxy-[1-methyl-2-(2,4,6-trichlorophenyl)-ethyl]-amide to give it its IUPAC name (the name “pydiflumetofen” is used herein interchangeably with the IUPAC name 3-difluoromethyl-1-methyl-1H-pyrazole-4-carboxylic acid methoxy-[1-methyl-2-(2,4,6-trichlorophenyl)-ethyl]-amide).

Data set [2] can be described thus: Emulsion stability / emulsion quality testing upon dilution. It counts as physicochemical. The conditions noted are these: for suitability as emulsifier for EC formulations of pydiflumetofen: sole surfactant in the test formulations (solo surfactant screens); for emulsion quality of two-way blends: non-ionic surfactant combined with anionic surfactant B^an in two-way blends. Here is the method:
Test sample of EC formulations of 3-difluoromethyl-1-methyl-1H-pyrazole-4-carboxylic acid methoxy-[1-methyl-2-(2,4,6-trichlorophenyl)-ethyl]-amide were diluted in standard water samples of known hardness (Table 5) in crow receivers, which were then incubated overnight at 5° C. and 30° C.
Emulsion quality was assessed visually after homogenising the samples through inversion, using a scale of 0 to 5 as shown in Table 7 below.
Further visual assessments were carried out 0.5, 2 and 24 hours post homogenisation and the volume of any cream or oil recorded. After 24 hours, the samples were re-homogenised and number of inversions required for re-emulsification was recorded and the samples were re-incubated at 5 or 30 (as appropriate) and a final visual assessment, including by microscopy was carried out.

As for `CON(C(=O)c1cn(C)nc1C(F)F)C(C)Cc1c(Cl)cc(Cl)cc1Cl` (centres unmarked) [pydiflumetofen, 3-difluoromethyl-1-methyl-1H-pyrazole-4-carboxylic acid methoxy-[1-methyl-2-(2,4,6-trichlorophenyl)-ethyl]-amide], the Solubility of pydiflumetofen at 25° C. % in data set [1] (solvent Acetophenone) came to 17.3%; in data set [1] (solvent Dimethyl lactamide) it was 9.65%; in data set [1] (solvent Dowanol DPM) it was 3.77%; in data set [1] (solvent Ethyl lactate), 5.74%; in data set [1] (solvent Gamma butyrolactone), 14.7%; in data set [1] (solvent Methyl benzoate) it was 15.1%. Moreover, the Solubility of pydiflumetofen at 25° C. % came to 0.63% in data set [1] (solvent Octan-1-ol); 5.85% in data set [1] (solvent Solvesso 200 ND/ULN); 9.7% in data set [1] (solvent THFA (Tetrahydrofurfuryl acetate)); 6.18% in data set [1] (solvent Tributyl phosphate); 8.82% in data set [1] (solvent Triethyl phosphate); 10.2% in data set [1] (solvent Trimethylcyclohexanone).
For “Block copolymer of poyhrdroxystearic acid and polyalkylene glycol [C^ni]”, in data set [2], the “suitability as emulsifier for EC formulations of pydiflumetofen” value was “most promising”.
On to Castor oil ethoxylate [A^ni], for which the “emulsion quality of two-way blends” value in data set [2] is “better quality emulsions overall”.
Turning to “POE (11)-synthetic primary C12/C15 alcohol [B^ni]”, in data set [2], the “emulsion quality of two-way blends” value was “better quality emulsions overall” and the “suitability as emulsifier for EC formulations of pydiflumetofen” value is given as “most promising”.
Take “Polyoxyethylene sorbitan monolaurate [D^ni]”: the “emulsion quality of two-way blends” value in data set [2] was “better quality emulsions overall”.

Source of the values: patent US20260215412A1, “AGROCHEMICAL FORMULATION” (priority 2023, published 2026).
